Assays:
Test in all cases: NCI cancer cell line screen (sulforhodamin B)
Assay type in all cases: cell-based
BT-549 = conditions: Homo sapiens; BT-549, Breast; 48 h; read-out: log10 GI50 (converted)
Method: (§1) The new dual Aurora A/VEGF-R inhibitors 2e and 2n were selected by the National Cancer Institute for screening in its broad cancer cell line panel. The NCI in vitro assay is performed by incubation of cells with test compounds for 48 h and subsequent cell fixation with trichloroacetic acid. The pink dye sulforhodamin B is added, which binds to the proteins of the fixed cells. After washing and solubilizing the bound stain, the optical density is measured spectrophotometrically to determine the relative proliferation of treated and untreated cells.
(§2) Simultaneous inhibition of the Aurora A kinase and the VEGF-R2/3 receptor kinases may represent an interesting dual activity for the treatment of cancer. The National Cancer Institute selected the compounds 2e and 2n as representatives with particularly high inhibitory activity on the above kinases for testing in the IVCLS (in vitro cell line screening). In this screening, compounds are tested for antiproliferative activity on about 60 in vitro cultivated tumor cell lines. Based on this very broad screening on cell lines from nine tumor entities the general antiproliferative potency of compounds is determined. In addition, the bioinformatic tool COMPARE allowed one to draw conclusions on the molecular target of the compounds from the activity patterns on the different cell lines. Similar molecular mechanisms of action of two compounds are assumed if a Pearson correlation coefficient (PCC) of > 0.6 is calculated by COMPARE [52, 53]. […] The selectivity profile of the two compounds is not very pronounced given the overall very similar proliferation inhibition values across all cell lines. A COMPARE analysis determined a PCC = 0.61 for the patterns of test compounds 2e and 2n, which is consistent with an analogous mechanism of action. However, whether this mechanism is actually based on the inhibition of the inhibited Aurora kinases and VEGF receptor kinases cannot be deduced from these profiles.

HT29 = conditions: Homo sapiens, HT-29; HT29, Colon; 48 h; read-out: log10 GI50 (converted)
Method: as §1, §2

SK-MEL-28 = conditions: Homo sapiens; SK-MEL-28, Melanoma; 48 h; read-out: log10 GI50 (converted)
Method: as §1, §2

HL-60(TB) = conditions: Homo sapiens, Leukemia, 48 h, read-out: log10 GI50 (converted)
Method: as §1, §2

MDA-MB-231/ATCC = conditions: Homo sapiens, Breast, 48 h, read-out: log10 GI50 (converted)
Method: as §1, §2

OVCAR-5 = conditions: Homo sapiens; OVCAR-5, Ovarian; 48 h; read-out: log10 GI50 (converted)
Method: as §1, §2

NCI-H522 = conditions: Homo sapiens; NCI-H522, NSCL; 48 h; read-out: log10 GI50 (converted)
Method: as §1, §2

SR = conditions: Homo sapiens, Leukemia, 48 h, read-out: log10 GI50 (converted)
Method: as §1, §2

EKVX = conditions: Homo sapiens, NSCL, 48 h, read-out: log10 GI50 (converted)
Method: as §1, §2

UACC-62 = conditions: Homo sapiens; UACC-62, Melanoma; 48 h; read-out: log10 GI50 (converted)
Method: as §1, §2

NCI-H322M = conditions: Homo sapiens, NSCL, 48 h, read-out: log10 GI50 (converted)
Method: as §1, §2

K-562 = conditions: Homo sapiens, K562; K-562, Leukemia; 48 h; read-out: log10 GI50 (converted)
Method: as §1, §2

M14 = conditions: Homo sapiens; M14, Melanoma; 48 h; read-out: log10 GI50 (converted)
Method: as §1, §2

HCT-116 = conditions: Homo sapiens; HCT-116, Colon; 48 h; read-out: log10 GI50 (converted)
Method: as §1, §2

T-47D = conditions: Homo sapiens, T47D, Breast, 48 h, read-out: log10 GI50 (converted)
Method: as §1, §2

OVCAR-4 = conditions: Homo sapiens; OVCAR-4, Ovarian; 48 h; read-out: log10 GI50 (converted)
Method: as §1, §2

UACC-257 = conditions: Homo sapiens; UACC-257, Melanoma; 48 h; read-out: log10 GI50 (converted)
Method: as §1, §2

NCI-H23 = conditions: Homo sapiens; NCI-H23, NSCL; 48 h; read-out: log10 GI50 (converted)
Method: as §1, §2

HCC-2998 = conditions: Homo sapiens; HCC-2998, Colon; 48 h; read-out: log10 GI50 (converted)
Method: as §1, §2

HOP-92 = conditions: Homo sapiens; HOP-92, NSCL; 48 h; read-out: log10 GI50 (converted)
Method: as §1, §2

OVCAR-3 = conditions: Homo sapiens; OVCAR-3, Ovarian; 48 h; read-out: log10 GI50 (converted)
Method: as §1, §2

SK-MEL-2 = conditions: Homo sapiens; SK-MEL-2, Melanoma; 48 h; read-out: log10 GI50 (converted)
Method: as §1, §2

NCI-H226 = conditions: Homo sapiens; NCI-H226, NSCL; 48 h; read-out: log10 GI50 (converted)
Method: as §1, §2

SNB-75 = conditions: Homo sapiens; SNB-75, CNS; 48 h; read-out: log10 GI50 (converted)
Method: as §1, §2

A549/ATCC = conditions: Homo sapiens, NSCL, 48 h, read-out: log10 GI50 (converted)
Method: as §1, §2

HCT-15 = conditions: Homo sapiens; HCT-15, Colon; 48 h; read-out: log10 GI50 (converted)
Method: as §1, §2

SK-OV-3 = conditions: Homo sapiens; SK-OV-3, Ovarian; 48 h; read-out: log10 GI50 (converted)
Method: as §1, §2

MCF7 = conditions: Homo sapiens; MCF7, Breast; 48 h; read-out: log10 GI50 (converted)
Method: as §1, §2

O=C1CCCc2cc(-c3ccnc(Nc4ccc(O)cc4)n3)ccc2N1 [Compound 2e, 7-[2-(4-Hydroxyanilino)pyrimidin-4-yl]-1,3,4,5-tetrahydro-2H-1-benzazepin-2-one]
GI50 (BT-549): 5.13 µM | GI50 (HT29): 5.13 µM | GI50 (SK-MEL-28): 5.75 µM | GI50 (HL-60(TB)): 1.38 µM | GI50 (MDA-MB-231/ATCC): > 100 µM | GI50 (OVCAR-5): 6.46 µM | GI50 (NCI-H522): 4.47 µM | GI50 (SR): 1.32 µM | GI50 (EKVX): 34.7 µM | GI50 (UACC-62): 9.12 µM | GI50 (NCI-H322M): 4.07 µM | GI50 (K-562): 3.72 µM | GI50 (M14): 4.07 µM | GI50 (HCT-116): 3.63 µM | GI50 (T-47D): 1.55 µM | GI50 (OVCAR-4): 5.62 µM | GI50 (UACC-257): 4.17 µM | GI50 (NCI-H23): > 100 µM | GI50 (HCC-2998): 8.71 µM | GI50 (HOP-92): 6.61 µM | GI50 (OVCAR-3): 5.89 µM | GI50 (SK-MEL-2): 2.09 µM | GI50 (NCI-H226): 29.5 µM | GI50 (SNB-75): 3.39 µM | GI50 (A549/ATCC): 4.47 µM | GI50 (HCT-15): 3.24 µM | GI50 (SK-OV-3): 3.02 µM | GI50 (MCF7): 4.27 µM

COc1ccc(Nc2nccc(-c3ccc4c(c3)CCCC(=O)N4)n2)cc1O [Compound 2n, 7-[2-(3-Hydroxy-4-methoxyanilino)pyrimidin-4-yl]-1,3,4,5-tetrahydro-2H-1-benzazepin-2-one]
GI50 (BT-549): 5.62 µM | GI50 (HT29): 13.2 µM | GI50 (SK-MEL-28): 9.12 µM | GI50 (HL-60(TB)): 3.16 µM | GI50 (MDA-MB-231/ATCC): > 100 µM | GI50 (OVCAR-5): 8.71 µM | GI50 (NCI-H522): 10 µM | GI50 (SR): 3.16 µM | GI50 (EKVX): 43.7 µM | GI50 (UACC-62): 9.33 µM | GI50 (NCI-H322M): 30.9 µM | GI50 (K-562): 4.27 µM | GI50 (M14): 4.37 µM | GI50 (HCT-116): 3.8 µM | GI50 (T-47D): 4.07 µM | GI50 (OVCAR-4): 7.59 µM | GI50 (UACC-257): 14.8 µM | GI50 (NCI-H23): 11.7 µM | GI50 (HCC-2998): 22.9 µM | GI50 (HOP-92): 0.214 µM | GI50 (OVCAR-3): 10 µM | GI50 (SK-MEL-2): 9.12 µM | GI50 (NCI-H226): 9.12 µM | GI50 (SNB-75): 2.19 µM | GI50 (A549/ATCC): 7.94 µM | GI50 (HCT-15): 4.57 µM | GI50 (SK-OV-3): 5.25 µM | GI50 (MCF7): 5.13 µM

From paper PMC7998669, “7-(2-Anilinopyrimidin-4-yl)-1-benzazepin-2-ones Designed by a “Cut and Glue” Strategy Are Dual Aurora A/VEGF-R Kinase Inhibitors” (Molecules, 2021)
